From patent US20240309360A1, “TRANS-ACTIVATORS AND METHODS AND USE THEREOF” (THE GOVERNING COUNCIL OF THE UNIVERSITY OF TORONTO, priority 2021, published 2024) come the findings set out here.

The subject of the experiment is EGFP reporter (7×TetO array, basal CMV promoter) in HEK293T reporter cell line. The experiment in a line: TAD-seq pooled activation screen of 60-aa fragments fused to PYL1. In kind it is cell-based, human. To be noted: for logFC high GFP / logFC medium GFP: log 2 fold change of counts, 100 μM ABA 48 hours; for logFC high GFP: sorted high GFP cells (top 1%) vs unsorted cells; for logFC medium GFP: sorted medium GFP cells (top 2-5%) vs unsorted cells; for Hit medium GFP: medium GFP population (top 2-5%); for Hit high GFP: high GFP population (top 1%). The text has this: A fragment library of 75 activators identified in our screen was generated, using 60 amino-acid tiles every 20 aa such that every amino acid was represented by three different fragments (FIG. 3A). The pooled fragment library was fused to PYL1 and recruited to the same GFP reporter used in the original ORFeome screen (FIG. 3A). […] The GFP positive population was sorted into two independent replicates, and fragments in each population were quantified by sequencing. However, in contrast to the ORFeome screen, both high GFP cells (top 1%) and medium GFP cells (top 2-5%) were sorted to potentially identify transactivators of different strength.
Activation domain tiling library generation. A tiling library was generated from 75 proteins identified as activators in the ORFeome screen. Oligonucleotides containing a 5′ adapter […] (SEQ ID NO: 23) and a 3′ adapter […] (SEQ ID NO: 24) to generate a 5′ adapter ([…]) (SEQ ID NO: 11) and a 3′ adapter ([…]) (SEQ ID NO: 12) were synthesized as pooled libraries (Twist Biosciences). 6×50 μl PCR reactions were set up using NEBNext Ultra II Q5 master mix (New England Biolabs) with 5 nM oligos as template. PCR conditions were optimized to find the lowest cycle with a clean visible product at the expected 300 bp length. The thermocycling condition was an initial 30 s at 98° C., then 2 cycles of 98° C. for 10 s, 63° C. for 20 s, and 72° C. for 15 s, followed by 10 more cycles of 98° C. for 10 s and 72° C. for 30 s with a final extension at 72° C. for 5 min. Primers were designed to have Gateway compatible flanking sequences. The resulting libraries were gel extracted by QIAgen gel extraction kit after loading on a 2% TAE gel for 2 hrs at 60V and subsequently cloned into pDONR221 using 20 separate BP reactions in total of 5 μl reactions. The entry plasmid pool was transformed after an overnight reaction into DHSalpha competent E. coli and incubated overnight on LB agar plates containing kanamycin ([…]). Colonies were collected and plasmid DNA purified. 20 LR reactions were then set up as described in the previous section. Each reaction was transformed into NEB 10-beta chemically competent E. coli and grown on LB agar plates containing carbenicillin ([…]) overnight at 30° C. Colonies were counted to ensure >200-fold coverage at each step of cloning, pooled and maxiprepped.
Pooled activation screens. ORFeome and transactivation tiling libraries tagged at the C-terminus with PYL1 were packaged into lentiviral particles. A clonal EGFP reporter cell line stably co-expressing ABI-dCas9 and a gRNA targeting the promoter were transduced at low multiplicity of infection (MOI) with approximately 30% cell survival after puromycin (1 μg/mL) selection. Untransduced cells under the same condition were fully eliminated. Sufficient cells were transduced to maintain >500 fold coverage of the libraries. Recruitment was induced by treating cells with 100 μM abscisic acid (ABA, Sigma) for 48 hours. In parallel, a control batch of cells were treated with equal total volume of DMSO. Cells were then washed in PBS, treated with dissociation buffer (1 mM EDTA, 10 mM KCl, 150 mM NaCl, 5 mM sodium bicarbonate, 0.1% glucose) and resuspended in flow buffer (5 mM EDTA, 25 mM HEPES pH 7, 1% BSA, PBS). High GFP population for each library, top 1% for ORFeome and two bins of top 1% and the next 4% for the TAD screen, were sorted and their genomic DNA directly extracted using QIAmp DNA Blood Mini Kit (QIAGEN).
TAD sequencing. Performed nested PCR on the purified genomic DNA using primers targeting T7 promoter and PYL1 of the backbone vector in the first step creating a ˜470 bp product. Products of the first reaction were then pooled and amplified for an additional 10 steps using primers targeting outside the Gateway sites creating a ˜300 bp product. Libraries were quantified on Qubit dsDNA Broad Range kit and paired-end sequenced on an Illumina MIseq with a custom PAGE-purified R1 sequencing primer. […]

In the case of “HOXA2-6: 60-aa TAD-seq fragment of HOXA2 (KKAAKKTALLPAAAAAATAAATGPACLSHKESLEIADGSGGGSRRLRTAYTNTQLLELEK; listed as Homo sapiens)”, the “logFC high GFP” value was determined as 1.951, the “logFC medium GFP” value is listed as 1.738 and the “Hit medium GFP” value is “hit”.

On to “RELB-2: 60-aa TAD-seq fragment of RELB (RRVARPPAAPELGALGSPDLSSLSLAVSRSTDELEIIDEYIKENGFGLDGGQPGPGEGLP; listed as Homo sapiens)”, for which the “Hit high GFP” value is reported as “hit”, the “logFC high GFP” value was 2.147, the “logFC medium GFP” value worked out at 1.711 and the “Hit medium GFP” value is given as “hit”.

On to “BTBD18-25: 60-aa TAD-seq fragment of BTBD18 (EEYRITSAAATSELEEILDFMLCGSDIEPPIGSLESPGAEGCRTPTYHLTETGKNWIEGE; listed as Homo sapiens)”, for which the “logFC high GFP” value is recorded as 1.471, the “logFC medium GFP” value worked out at 1.413 and the “Hit medium GFP” value is listed as “hit”.

Regarding “SPDYE4-4: 60-aa TAD-seq fragment of SPDYE4 (SEEELEEELELERAPEPEDTWVVETLCGLKMKLKRKRASSVLPEHHEAFNRLLGDPVVQK; listed as Homo sapiens)”, the “Hit high GFP” value was “hit”, the “logFC high GFP” value is reported as 4.316, the “logFC medium GFP” value is listed as 1.914 and the “Hit medium GFP” value was “hit”.

For “ATMIN-32: 60-aa TAD-seq fragment of ATMIN (ETQTMSSGFETLGSLFFTSNETQTAMDDFLLADLAWNTMESQFSSVETQTSAEPHTVSNF; listed as Homo sapiens)”, the “logFC high GFP” value turned out to be 0.6355, the “logFC medium GFP” value is on record as 0.8198 and the “Hit medium GFP” value is “hit”.

For “FAM22F-19: 60-aa TAD-seq fragment of FAM22F (PRPQRPAETNAHLPPPRPQRPAETKVPEEIPPEVVQEYVDIMEELLGSHPGDTGEPEGQR; listed as Homo sapiens)”, the “logFC high GFP” value was 0.9998, the “logFC medium GFP” value was found to be 0.9884 and the “Hit medium GFP” value is listed as “hit”.

Regarding “SERTAD1-10: 60-aa TAD-seq fragment of SERTAD1 (IDTSMYDNELWAPASEGLKPGPEDGPGKEEAPELDEAELDYLMDVLVGTQALERPPGPGR; listed as Homo sapiens)”, the “logFC high GFP” value is 0.2349, the “logFC medium GFP” value worked out at 0.8385 and the “Hit medium GFP” value is “hit”.

With “ATOH1-1: 60-aa TAD-seq fragment of ATOH1 (MSRLLHAEEWAEVKELGDHHRQPQPHHLPQPPPPPQPPATLQAREHPVYPPELSLLDSTD; listed as Homo sapiens)”, the “logFC high GFP” value was 0.7218, the “logFC medium GFP” value is listed as 0.9194 and the “Hit medium GFP” value is “hit”.

In the case of “BTBD18-24: 60-aa TAD-seq fragment of BTBD18 (IDCREPYAFDTALLEQPCEAEEYRITSAAATSELEEILDFMLCGSDIEPPIGSLESPGAE; listed as Homo sapiens)”, the “logFC high GFP” value was found to be 1.246, the “logFC medium GFP” value is 0.8561 and the “Hit medium GFP” value is “hit”.

As to “NPAS4-39: 60-aa TAD-seq fragment of NPAS4 (CNNLSPEDHSFLEDLATYETAFETGVSAFPYDGFTDELHQLQSQVQDSFHEDGSGGEPTF; listed as Homo sapiens)”, the “logFC high GFP” value was 0.798, the “logFC medium GFP” value was determined as 0.7684 and the “Hit medium GFP” value is “hit”.

Turning to “BRD8-23: 60-aa TAD-seq fragment of BRD8 (KEECFRSGVAEAPVGSKAPSIDGKEELDLAEKMDIAVSYTGEELDFETVGDIIAIIEDKV; listed as Homo sapiens)”, the “logFC high GFP” value is 0.5884, the “logFC medium GFP” value is on record as 0.5915 and the “Hit medium GFP” value is “hit”.

For the substance “LIN9-25: 60-aa TAD-seq fragment of LIN9 (SRLTAILLQIKCLAEGGDLNSFEFKSLTDSLNDIKSTIDASNISCFQNNVEIHVAHIQSG; listed as Homo sapiens)”, the “Hit high GFP” value is on record as “hit”, the “logFC high GFP” value is on record as 2.094 and the “logFC medium GFP” value turned out to be 1.08.
